Measured values reported in patent US7429660B2, “ATM inhibitors” (Kudos Pharmaceuticals Limited, priority 2003, dated 2008).

Biological target: T1, ATM protein immunoprecipitated from HeLa cell nuclear extract (Homo sapiens, UniProt Q13315)
T1 construct: ATM protein was immunoprecipitated from HeLa cell nuclear extract; endogenous in cells; host or cells: HeLa cell nuclear extract (immunoprecipitated with rabbit polyclonal anti-ATM antiserum)
Test: In vitro ATM inhibition assay (phosphorylation of GSTp53N66 on serine 15, chemiluminescent detection); further: tested normally from 100 µM down to 0.1 nM
Type: biochemical
Details: read-out: IC50 values (the concentration at which 50% of the enzyme activity is inhibited), ATM inhibition
Outline: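 Immunoprecipitated HeLa nuclear ATM (C-terminal anti-sera) with GSTp53N66 substrate in Hepes pH 7.4 buffer with MgCl2/MnCl2; inhibitor preincubated 10 min at 37 °C, then Na-ATP added, 1 h at 37 °C.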

T1 sequence (Q13315 whole entry): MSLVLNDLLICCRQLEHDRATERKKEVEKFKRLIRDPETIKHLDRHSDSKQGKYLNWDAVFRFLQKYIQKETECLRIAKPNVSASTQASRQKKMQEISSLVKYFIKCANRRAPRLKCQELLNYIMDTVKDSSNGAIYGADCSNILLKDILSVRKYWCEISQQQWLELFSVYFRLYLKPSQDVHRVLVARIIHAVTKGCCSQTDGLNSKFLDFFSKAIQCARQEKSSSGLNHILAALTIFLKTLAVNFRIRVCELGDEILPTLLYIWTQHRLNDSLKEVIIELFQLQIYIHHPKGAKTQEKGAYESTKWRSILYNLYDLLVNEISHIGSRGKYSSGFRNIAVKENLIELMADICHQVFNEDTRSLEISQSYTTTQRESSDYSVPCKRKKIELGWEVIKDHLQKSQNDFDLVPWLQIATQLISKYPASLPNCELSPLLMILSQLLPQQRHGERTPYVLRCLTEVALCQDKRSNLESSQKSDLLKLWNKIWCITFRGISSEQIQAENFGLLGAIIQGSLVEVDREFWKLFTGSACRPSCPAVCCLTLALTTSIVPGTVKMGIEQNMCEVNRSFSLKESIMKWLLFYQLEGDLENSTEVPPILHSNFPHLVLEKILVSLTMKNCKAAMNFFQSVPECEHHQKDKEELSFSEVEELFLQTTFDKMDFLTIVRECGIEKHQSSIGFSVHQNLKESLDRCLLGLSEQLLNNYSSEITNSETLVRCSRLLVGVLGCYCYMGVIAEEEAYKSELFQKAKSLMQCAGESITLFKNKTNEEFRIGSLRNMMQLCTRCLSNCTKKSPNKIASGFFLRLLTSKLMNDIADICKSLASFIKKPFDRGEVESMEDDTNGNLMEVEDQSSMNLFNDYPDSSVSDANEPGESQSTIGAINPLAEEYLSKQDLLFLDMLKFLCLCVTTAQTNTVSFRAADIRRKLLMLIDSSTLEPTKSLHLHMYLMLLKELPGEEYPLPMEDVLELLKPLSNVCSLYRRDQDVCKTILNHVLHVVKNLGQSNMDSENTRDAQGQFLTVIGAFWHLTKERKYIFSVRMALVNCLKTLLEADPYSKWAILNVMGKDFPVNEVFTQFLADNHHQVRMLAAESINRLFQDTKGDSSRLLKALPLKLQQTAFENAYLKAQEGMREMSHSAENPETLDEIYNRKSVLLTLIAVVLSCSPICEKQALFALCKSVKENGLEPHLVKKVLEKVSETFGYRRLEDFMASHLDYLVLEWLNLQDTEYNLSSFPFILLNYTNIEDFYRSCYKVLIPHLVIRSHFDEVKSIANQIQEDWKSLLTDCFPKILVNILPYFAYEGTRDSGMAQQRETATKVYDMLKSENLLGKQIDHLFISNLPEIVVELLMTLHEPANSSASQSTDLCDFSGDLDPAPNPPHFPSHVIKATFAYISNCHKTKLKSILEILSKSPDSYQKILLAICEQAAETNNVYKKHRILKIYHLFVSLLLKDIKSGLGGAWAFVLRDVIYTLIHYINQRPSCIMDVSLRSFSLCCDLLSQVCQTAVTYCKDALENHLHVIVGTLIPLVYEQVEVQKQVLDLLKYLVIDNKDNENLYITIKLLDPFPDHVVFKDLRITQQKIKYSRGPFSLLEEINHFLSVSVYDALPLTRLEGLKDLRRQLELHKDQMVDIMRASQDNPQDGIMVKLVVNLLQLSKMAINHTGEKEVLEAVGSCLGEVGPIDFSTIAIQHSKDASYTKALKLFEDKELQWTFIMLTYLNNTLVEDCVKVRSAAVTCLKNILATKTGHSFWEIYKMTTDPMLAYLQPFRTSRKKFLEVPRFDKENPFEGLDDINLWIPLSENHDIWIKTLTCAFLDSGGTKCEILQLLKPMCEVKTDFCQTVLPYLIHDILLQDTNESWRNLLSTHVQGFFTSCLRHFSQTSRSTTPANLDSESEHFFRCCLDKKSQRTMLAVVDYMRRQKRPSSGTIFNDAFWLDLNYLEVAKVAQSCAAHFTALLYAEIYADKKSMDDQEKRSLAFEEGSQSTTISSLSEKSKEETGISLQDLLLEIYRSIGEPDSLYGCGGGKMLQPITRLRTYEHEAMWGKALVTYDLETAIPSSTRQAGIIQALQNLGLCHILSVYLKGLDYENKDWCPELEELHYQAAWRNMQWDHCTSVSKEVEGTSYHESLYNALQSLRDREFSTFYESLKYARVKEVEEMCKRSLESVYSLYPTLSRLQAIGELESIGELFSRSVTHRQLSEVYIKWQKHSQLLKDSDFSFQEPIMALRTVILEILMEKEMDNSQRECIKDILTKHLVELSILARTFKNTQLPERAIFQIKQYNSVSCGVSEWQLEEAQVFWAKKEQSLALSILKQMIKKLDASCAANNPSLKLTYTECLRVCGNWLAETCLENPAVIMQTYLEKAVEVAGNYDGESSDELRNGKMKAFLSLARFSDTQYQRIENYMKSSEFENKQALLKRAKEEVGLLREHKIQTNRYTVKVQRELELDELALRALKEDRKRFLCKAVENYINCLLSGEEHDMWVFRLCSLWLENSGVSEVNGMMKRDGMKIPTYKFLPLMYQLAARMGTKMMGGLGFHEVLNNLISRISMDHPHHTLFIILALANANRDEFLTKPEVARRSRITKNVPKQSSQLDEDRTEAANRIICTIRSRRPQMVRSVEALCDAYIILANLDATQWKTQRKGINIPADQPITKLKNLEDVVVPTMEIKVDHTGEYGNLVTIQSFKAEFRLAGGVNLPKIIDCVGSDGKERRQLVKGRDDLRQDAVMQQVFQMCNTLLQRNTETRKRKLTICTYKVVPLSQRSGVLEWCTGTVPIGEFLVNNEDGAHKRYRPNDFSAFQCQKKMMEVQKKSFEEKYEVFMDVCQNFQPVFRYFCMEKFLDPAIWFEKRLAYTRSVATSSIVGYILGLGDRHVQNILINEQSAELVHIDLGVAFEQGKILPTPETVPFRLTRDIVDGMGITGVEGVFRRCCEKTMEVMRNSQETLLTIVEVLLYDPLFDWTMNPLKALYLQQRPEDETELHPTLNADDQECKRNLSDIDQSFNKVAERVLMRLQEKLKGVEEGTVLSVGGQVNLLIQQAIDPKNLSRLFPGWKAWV

SMILES	IC50 [nM]
Cc1ccccc1N1CCN(CCCN2c3ccccc3Sc3c(-c4cc(=O)cc(N5CCOCC5)o4)cccc32)CC1 [Compound 289]	< 200
O=c1cc(-c2cccc3c2Sc2ccccc2N3CCCN2CCN(c3ccccn3)CC2)oc(N2CCOCC2)c1 [Compound 290]	< 200
O=c1cc(-c2cccc3c2Sc2ccccc2N3CCCN2CCN(c3ccncc3)CC2)oc(N2CCOCC2)c1 [Compound 291]	< 200
O=c1cc(-c2cccc3c2Sc2ccccc2N3CCCN2CCN(CCOCCO)CC2)oc(N2CCOCC2)c1 [Compound 292]	< 200
Cc1ccc(N2CCN(CCCN3c4ccccc4Sc4c(-c5cc(=O)cc(N6CCOCC6)o5)cccc43)CC2)c(C)c1 [Compound 294]	< 200
O=c1cc(-c2cccc3c2Sc2ccccc2N3CCCN2CCN(c3ncccn3)CC2)oc(N2CCOCC2)c1 [Compound 295]	< 200
CC(C)NC(=O)CN1CCN(CCCN2c3ccccc3Sc3c(-c4cc(=O)cc(N5CCOCC5)o4)cccc32)CC1 [Compound 296]	< 200
O=c1cc(-c2cccc3c2Sc2ccccc2N3CCCN2CCN(c3ccccc3F)CC2)oc(N2CCOCC2)c1 [Compound 297]	< 200
CC(C)(C)OC(=O)N1CCN(CCCN2c3ccccc3Sc3c(-c4cc(=O)cc(N5CCOCC5)o4)cccc32)CC1 [Compound 298]	< 200
CCOC(=O)CN1CCN(CCCN2c3ccccc3Sc3c(-c4cc(=O)cc(N5CCOCC5)o4)cccc32)CC1=O [Compound 299]	< 200
O=c1cc(-c2cccc3c2Sc2ccccc2N3CCCN2CCN(CCO)CC2)oc(N2CCOCC2)c1 [Compound 300]	< 200
O=c1cc(-c2cccc3c2Sc2ccccc2N3CCCN2CCNCC2)oc(N2CCOCC2)c1 [Compound 303]	< 200
CN(C)CCN1CCN(CCCN2c3ccccc3Sc3c(-c4cc(=O)cc(N5CCOCC5)o4)cccc32)CC1 [Compound 304]	< 200
O=c1cc(-c2cccc3c2Sc2ccccc2N3CCCNC2CCC(O)CC2)oc(N2CCOCC2)c1 (stereo not shown) [Compound 306]	< 200
CN1CCC(NCCCN2c3ccccc3Sc3c(-c4cc(=O)cc(N5CCOCC5)o4)cccc32)CC1 [Compound 307]	< 200
CC(C)(C)OC(=O)N1CCC(NCCCN2c3ccccc3Sc3c(-c4cc(=O)cc(N5CCOCC5)o4)cccc32)CC1 [Compound 311]	< 200

SMILES	IC50 [nM]
CCOC(=O)C1CCN(CCCN2c3ccccc3Sc3c(-c4cc(=O)cc(N5CCOCC5)o4)cccc32)CC1 [Compound 312]	< 200
CCOC(=O)C1CCCN(CCCN2c3ccccc3Sc3c(-c4cc(=O)cc(N5CCOCC5)o4)cccc32)C1 (stereo not shown) [Compound 315]	< 200
CC1(C)OCC(CNCCCN2c3ccccc3Sc3c(-c4cc(=O)cc(N5CCOCC5)o4)cccc32)O1 (stereo not shown) [Compound 321]	< 200
O=c1cc(-c2cccc3c2Sc2ccccc2N3CCCNC(CO)(CO)CO)oc(N2CCOCC2)c1 [Compound 322]	< 200
O=c1cc(-c2cccc3c2Sc2ccccc2N3CCCNCC2CCCCCC2O)oc(N2CCOCC2)c1 (stereo not shown) [Compound 326]	< 200
O=c1cc(-c2cccc3c2Sc2ccccc2N3CCCN(CCO)CCO)oc(N2CCOCC2)c1 [Compound 327]	< 200
O=c1cc(-c2cccc3c2Sc2ccccc2N3CCCNCC2CCCCC2O)oc(N2CCOCC2)c1 (stereo not shown) [Compound 328]	< 200
O=c1cc(-c2cccc3c2Sc2ccccc2N3CCCNc2nc(-c3ccccc3)ns2)oc(N2CCOCC2)c1 [Compound 330]	< 200
CN1CCCN(CCCN2c3ccccc3Sc3c(-c4cc(=O)cc(N5CCOCC5)o4)cccc32)CC1 [Compound 331]	< 200
CC(C)(C)OC(=O)N1CCCN(CCCN2c3ccccc3Sc3c(-c4cc(=O)cc(N5CCOCC5)o4)cccc32)CC1 [Compound 333]	< 200
O=C(CCCCC1SC[C@@H]2NC(=O)N[C@H]12)NCCCCCC(=O)NCCNCCCN1c2ccccc2Sc2c(-c3cc(=O)cc(N4CCOCC4)o3)cccc21 (stereo partly shown) [Compound 336]	< 200
CC(=O)N1CCN(CC(=O)Nc2ccc3c(c2)Cc2cccc(-c4cc(=O)cc(N5CCOCC5)o4)c2S3)CC1 [Compound 338]	< 200
COCCN1CCN(CC(=O)Nc2ccc3c(c2)Cc2cccc(-c4cc(=O)cc(N5CCOCC5)o4)c2S3)CC1 [Compound 339]	< 200
O=C(CN1CCN(CCOCCO)CC1)Nc1ccc2c(c1)Cc1cccc(-c3cc(=O)cc(N4CCOCC4)o3)c1S2 [Compound 340]	< 200
CC(C)N1CCN(CC(=O)Nc2ccc3c(c2)Cc2cccc(-c4cc(=O)cc(N5CCOCC5)o4)c2S3)CC1 [Compound 341]	< 200

The remaining lines, values ahead:

IC50 [nM]	SMILES
< 200	O=c1cc(-c2cccc3c2Sc2ccccc2N3CCCNC2CCCCC2)oc(N2CCOCC2)c1 [Compound 251]
< 200	O=c1cc(-c2cccc3c2Sc2ccccc2N3CCCNCC2CCCCC2)oc(N2CCOCC2)c1 [Compound 253]
< 200	O=c1cc(-c2cccc3c2Sc2ccccc2N3CCCNC2CCCC2)oc(N2CCOCC2)c1 [Compound 254]
< 200	CC1CN(CCCN2c3ccccc3Sc3c(-c4cc(=O)cc(N5CCOCC5)o4)cccc32)CC(C)O1 (stereo not shown) [Compound 257]
< 200	O=c1cc(-c2cccc3c2Sc2ccccc2N3CCCN2CCCCCC2)oc(N2CCOCC2)c1 [Compound 260]
< 200	O=c1cc(-c2cccc3c2Sc2ccccc2N3CCCNN2CCCCCC2)oc(N2CCOCC2)c1 [Compound 261]
< 200	O=c1cc(-c2cccc3c2Sc2ccccc2N3CCCNCCN2CCCC2)oc(N2CCOCC2)c1 [Compound 264]
< 200	O=c1cc(-c2cccc3c2Sc2ccccc2N3CCCNCc2ccccn2)oc(N2CCOCC2)c1 [Compound 266]
< 200	O=c1cc(-c2cccc3c2Sc2ccccc2N3CCCNCc2cccnc2)oc(N2CCOCC2)c1 [Compound 267]
< 200	CN1CCN(CCCNCCCN2c3ccccc3Sc3c(-c4cc(=O)cc(N5CCOCC5)o4)cccc32)CC1 [Compound 270]
< 200	O=c1cc(-c2cccc3c2Sc2ccccc2N3CCCNCCc2cnc[nH]2)oc(N2CCOCC2)c1 [Compound 271]
< 200	O=c1cc(-c2cccc3c2Sc2ccccc2N3CCCNCCN2CCOCC2)oc(N2CCOCC2)c1 [Compound 272]
< 200	O=c1cc(-c2cccc3c2Sc2ccccc2N3CCCNCCN2CCN(Cc3ccccc3)CC2)oc(N2CCOCC2)c1 [Compound 274]
< 200	CCN(CC)CCCNCCCN1c2ccccc2Sc2c(-c3cc(=O)cc(N4CCOCC4)o3)cccc21 [Compound 277]
< 200	CN(C)CCN(CCCN1c2ccccc2Sc2c(-c3cc(=O)cc(N4CCOCC4)o3)cccc21)Cc1ccccc1 [Compound 281]
< 200	CN(C)CCNCCCN1c2ccccc2Sc2c(-c3cc(=O)cc(N4CCOCC4)o3)cccc21 [Compound 282]
< 200	CN(C)CCCNCCCN1c2ccccc2Sc2c(-c3cc(=O)cc(N4CCOCC4)o3)cccc21 [Compound 284]
< 200	COCCCNCCCN1c2ccccc2Sc2c(-c3cc(=O)cc(N4CCOCC4)o3)cccc21 [Compound 285]
< 200	CCOCCCNCCCN1c2ccccc2Sc2c(-c3cc(=O)cc(N4CCOCC4)o3)cccc21 [Compound 286]
< 200	O=C1NCCN1CCNCCCN1c2ccccc2Sc2c(-c3cc(=O)cc(N4CCOCC4)o3)cccc21 [Compound 287]
< 200	CN1CCN(CCCN2c3ccccc3Sc3c(-c4cc(=O)cc(N5CCOCC5)o4)cccc32)CC1 [Compound 288]
